Source: US20240018158A1, “BRM TARGETING COMPOUNDS AND ASSOCIATED METHODS OF USE” (Prelude Therapeutics Incorporated, priority 2020, published 2024)

Legend:
[1] = molecular target: bromodomain of SMARCA2 protein (Homo sapiens (Human), UniProt P40337+P51531); assay: SMARCA2 bromodomain ternary binding TR-FRET assay (with VCB); settings: with saturating VCB (5 μM); read-out: IC50 (SM 2_T) ternary binding potency in SMARCA2 FRET assay
Excerpt: Recombinant bromodomain of SMARCA2 protein was purchased from Active Motif (Catalog #: 31449). VHL/ElonginB/ElonginC (VCB)N-terminal his6-tagged VHL (“his6” disclosed as SEQ ID NO: 4) (uniprot accession number P40337; M54-D213; […] […] […] (SEQ ID NO: 1)), Elongin B (Q15370; M1-K104; […] […] (SEQ ID NO: 2)), Elongin C (Q15369; M17-C112; […] […] (SEQ ID NO: 3)) complex were co-expressed and the complex was purified by Ni-affinity, TEV protease was then used to remove his6-tagged (SEQ ID NO: 4), and the complex was further purified by size-exclusion chromatography before use.
The inhibitory activity of compounds was evaluated in vitro using TR-FRET assay with white 384-well low volume microplate (PerkinElmer ProxiPlate Plus), in which the compound competes the same binding site with the ligand, and thus lead to dose-dependent TR-FRET signal reduction. The cooperativity of the compounds for ternary complex formation with E3 ligase was evaluated in the absence or presence of saturating concentrations of VCB. Testing compounds were dissolved in DMSO at […] and tested in 9-dose IC50. The assay mixture was prepared by mixing SMARCA2 (10 nM final), biotinylated probe (25 nM final), and assay buffer or VCB (5 μM) in 1×AlphaLISA Epigenetics Buffer (PerkinElmer AL008F) with 1 mM TCEP. The compounds in DMSO were added to each well in 3-fold serial dilution by dispenser (TECAN D300E) and incubate for 20 minutes at room temperature before addition of detection reagents, Lance Eu W1024 anti-6×His (0.6 nM final, PerkinElmer AD0110) and Streptavidin Surelight APC (6 nM final, PerkinElmer CR130-100). The plate was then sealed and further incubated at 4° C. overnight in dark, and then was read by Envision multimode plate reader (PerkinElmer, 2102-0010). The ratio of florescence signal at 665/620 was used in data analysis. Percentage inhibition was calculated by % inhibition=100×(FDMSO-F)/(FDMSO-FPC), in which FDMSO is DMSO control, and FPC is positive control. IC50 values were determined from dose response curve by fitting the percent inhibition against compound concentration using GraphPad Prism software.

SMARCA2 = SMARCA2 (Homo sapiens (Human), UniProt P51531); assay: In Cell Western SMARCA2 degradation in NCIH520 cells; assay type: cell-based; settings: for DC50: read-out: DC50 (SM2_H520) SMARCA2 degradation potency
Sequence of SMARCA2 (P51531 whole entry): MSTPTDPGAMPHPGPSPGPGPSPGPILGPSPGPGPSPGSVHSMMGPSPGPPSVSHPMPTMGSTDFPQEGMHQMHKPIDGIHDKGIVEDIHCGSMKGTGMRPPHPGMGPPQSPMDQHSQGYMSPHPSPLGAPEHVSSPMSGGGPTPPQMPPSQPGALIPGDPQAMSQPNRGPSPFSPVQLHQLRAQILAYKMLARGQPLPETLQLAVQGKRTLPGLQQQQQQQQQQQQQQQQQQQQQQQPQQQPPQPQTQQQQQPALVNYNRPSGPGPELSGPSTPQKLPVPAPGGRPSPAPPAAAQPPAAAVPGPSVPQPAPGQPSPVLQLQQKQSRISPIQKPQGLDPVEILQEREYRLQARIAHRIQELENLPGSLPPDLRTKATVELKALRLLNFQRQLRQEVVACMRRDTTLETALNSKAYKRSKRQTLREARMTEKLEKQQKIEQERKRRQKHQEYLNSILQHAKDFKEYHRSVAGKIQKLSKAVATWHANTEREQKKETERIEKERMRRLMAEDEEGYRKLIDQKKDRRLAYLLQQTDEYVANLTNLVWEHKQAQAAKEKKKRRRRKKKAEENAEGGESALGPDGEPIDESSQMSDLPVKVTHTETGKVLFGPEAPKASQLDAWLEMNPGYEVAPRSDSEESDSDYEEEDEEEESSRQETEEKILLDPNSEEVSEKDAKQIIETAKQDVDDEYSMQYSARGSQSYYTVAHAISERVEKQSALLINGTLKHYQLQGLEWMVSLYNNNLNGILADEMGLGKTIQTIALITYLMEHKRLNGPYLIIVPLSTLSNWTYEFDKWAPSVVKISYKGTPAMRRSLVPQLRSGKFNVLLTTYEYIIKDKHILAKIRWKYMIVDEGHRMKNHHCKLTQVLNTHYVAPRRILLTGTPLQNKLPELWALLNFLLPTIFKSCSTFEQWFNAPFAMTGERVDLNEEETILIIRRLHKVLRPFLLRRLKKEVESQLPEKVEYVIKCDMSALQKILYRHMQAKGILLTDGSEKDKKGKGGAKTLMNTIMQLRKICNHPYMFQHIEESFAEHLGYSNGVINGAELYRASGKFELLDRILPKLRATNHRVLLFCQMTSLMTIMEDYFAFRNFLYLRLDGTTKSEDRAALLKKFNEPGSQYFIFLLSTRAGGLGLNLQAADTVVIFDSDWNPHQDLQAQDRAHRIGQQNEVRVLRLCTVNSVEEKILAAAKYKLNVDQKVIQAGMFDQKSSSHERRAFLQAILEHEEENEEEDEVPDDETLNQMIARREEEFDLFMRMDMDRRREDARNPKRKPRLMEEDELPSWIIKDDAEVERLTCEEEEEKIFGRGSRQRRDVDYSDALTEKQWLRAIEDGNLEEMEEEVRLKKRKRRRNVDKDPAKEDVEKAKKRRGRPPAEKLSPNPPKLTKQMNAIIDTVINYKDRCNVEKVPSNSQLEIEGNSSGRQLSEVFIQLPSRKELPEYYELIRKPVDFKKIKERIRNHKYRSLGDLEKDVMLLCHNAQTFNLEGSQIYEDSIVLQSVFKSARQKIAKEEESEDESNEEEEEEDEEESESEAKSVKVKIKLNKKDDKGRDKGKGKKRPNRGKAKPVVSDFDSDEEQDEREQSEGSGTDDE
Method: Compound titration and cell culture: Compounds were dissolved in DMSO to make 10 mM stock and 3-fold series dilutions were further conducted keeping the highest concentration 10 μM. NCIH1693 and NCIH520 cells were maintained in PRMI 1640 medium (Corning Cellgro, Catalog #:10-040-CV) supplemented with 10% v/v FBS (GE Healthcare, Catalog #: SH30910.03) by splitting 1:3 twice a week.
To determine SMACRA2 and SMARCA4 protein degradation DC50 values in NCIH1693 and NCIH520 cells by In Cell Western (ICW) analysis. Cells were trypsinized and 30 thousand cells/well were seeded into 384-well plates and were allowed to grow for 5 hours at 37° C. Eight-point, 3-fold serial dilutions of compounds from 10 mM stocks were added to the cells (using digital Dispenser D300-Tecan, keeping highest concentration 10 μM and normalizing with DMSO at the highest dispensed volume). Plates were incubated at 37° C. for overnight (maximum 18 hours). Cells incubated with DMSO was used as a vehicle control.
To perform In Cell Western, medium was removed from all the wells leaving cells attached to the surface. After removing the medium, cells were fixed within the plates with 40 μL of 4% formaldehyde by incubating at room temperature for 30 minutes, and then permeabilized with wash buffer (1×PBS with 0.1% Triton X-100) by washing the plate 5 times with 50 μL/well. Before labeling with primary antibodies, cells were blocked with 30 μL/well of blocking buffer (Licor Odyssey blocking buffer PBS #927-40000) for 30 minutes at room temperature. To measure SMARCA2 or SMARCA4 proteins, cells were labeled with 20 μL/well of anti SMARCA2 or SMACRA4 antibodies (Cell Signaling BRM #11966S 1:1000, Cell Signaling BRG #49360S 1:1000) diluted in Li-Cor Odyssey blocking buffer-PBS #927-40000, followed by overnight incubation at 4° C.
The next day, plates were washed 5×5 minutes with 50 μL/well of washing buffer to remove all the excess primary antibody and then 20 μL from a mixture of secondary antibody and fluorescent DNA specific dye (Goat anti rabbit 1:500 IRDye-800CW #92632211, and DRAQ5™ 1:2000-#ab108410) was added to each well. Plates were incubated for 1 hour at room temperature with gentle rocking. Cells were washed 5 times with 50 μL/well wash buffer, followed by one last wash with DI water, followed by 10 mins drying at 37° C. oven before scanning. Plates were scanned using Li-Cor Odyssey CLx imaging system to acquire integrated intensities at 700 nm and 800 nm. SMARCA signals were normalized to total cell count and then these normalized values were used to calculate the percent degradation relative to DMSO control and maximum inhibition. DC50s were calculated by using the GraphPad Prism4 program based on sigmoidal dose response equation ([Inhibitor] vs. normalized response−Variable slope).

Sequence of bromodomain of SMARCA2 protein (P51531 whole entry, looked up): as the sequence (P51531 whole entry) above
Sequence of bromodomain of SMARCA2 protein (P40337 whole entry, looked up): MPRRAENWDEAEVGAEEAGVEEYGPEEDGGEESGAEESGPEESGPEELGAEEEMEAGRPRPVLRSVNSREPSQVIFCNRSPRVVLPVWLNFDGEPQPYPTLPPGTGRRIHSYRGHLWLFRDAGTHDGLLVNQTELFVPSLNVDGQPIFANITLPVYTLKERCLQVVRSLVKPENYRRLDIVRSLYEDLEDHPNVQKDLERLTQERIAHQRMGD
Sequence of bromodomain of SMARCA2 protein (Q15370 whole entry partner, looked up): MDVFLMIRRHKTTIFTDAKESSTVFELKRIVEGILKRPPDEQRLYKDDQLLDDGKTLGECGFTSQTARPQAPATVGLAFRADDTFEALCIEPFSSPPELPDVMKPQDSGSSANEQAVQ
Sequence of bromodomain of SMARCA2 protein (Q15369 whole entry partner, looked up): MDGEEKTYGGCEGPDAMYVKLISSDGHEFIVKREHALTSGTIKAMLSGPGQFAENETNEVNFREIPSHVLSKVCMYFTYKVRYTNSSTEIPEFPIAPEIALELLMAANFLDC

| Compound | IC50 [1] [nM] | DC50 (SMARCA2; H520 cells, overnight) [nM] | Dmax (SMARCA2; NCI-H520, overnight, read-out: Dmax % (SM2_H520) maximum SMARCA2 degradation within the concentrations tested) [%] | Dmax % (SM2_H520) maximum SMARCA2 degradation within the concentrations tested (SMARCA2; H520 cells, overnight) |
| --- | --- | --- | --- | --- |
| Cc1ncsc1-c1ccc([C@H](C)NC(=O)[C@@H]2C[C@@H](O)CN2C(=O)[C@@H](NC(=O)CN2CCN3c4cc(-c5ccccc5O)nnc4NCC3C2)C(C)(C)C)cc1 (single isomer, unassigned) [Example 1b] | < 100 | 100 to 1000 | – | – |
| Cc1scnc1-c1ccc(CNC(=O)[C@@H]2C[C@@H](O)CN2C(=O)[C@@H](NC(=O)CN2CCN3c4cc(-c5ccccc5O)nnc4NCC3C2)C(C)(C)C)cc1 (single isomer, unassigned) [Example 2a] | 100 to 1000 | 100 to 1000 | > 75 | – |
| Cc1scnc1-c1ccc(CNC(=O)[C@@H]2C[C@@H](O)CN2C(=O)[C@@H](NC(=O)CN2CCN3c4cc(-c5ccccc5O)nnc4NCC3C2)C(C)(C)C)cc1 (single isomer, unassigned) [Example 2b] | < 100 | 1000 to 10000 | – | A (A = Dmax > 75%) |
